Results reported in ChEMBL document CHEMBL1201862, “PubChem BioAssay data set” (2004).
Calls of active or inactive are those of the source.

Legend:
[1] = microbe, parasite or virus in culture; assay type: functional; conditions: Mycobacterium tuberculosis
[2] = Luminescence Cell-Based Dose Retest to Confirm Inhibitors of Cancer Stem Cells. [Related pubchem assays (depositor defined):AID2717, AID2721]; assay type: functional; conditions: Homo sapiens
[3] = ADAM10 inhibitors, peptide cleavage, dose response, biochemical, QFRET (AID 743254);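 further: ADAM10 enzyme with the DM2 quenched FRET peptide as substrate; EDANS fluorescence gain as the protease cuts the substrate; inhibitor potency against ADAM10 proteolytic activity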
[4] = target: Disintegrin and metalloproteinase domain-containing protein 17 (Homo sapiens, UniProt P78536); assay: ADAM17 protease inhibitors, dose response, counter-screen for ADAM10 exosite inhibitor project, biochemical, quenched FRET substrate (AID 743253)
Disintegrin and metalloproteinase domain-containing protein 17, sequence (P78536 whole entry, the tested form may be a part): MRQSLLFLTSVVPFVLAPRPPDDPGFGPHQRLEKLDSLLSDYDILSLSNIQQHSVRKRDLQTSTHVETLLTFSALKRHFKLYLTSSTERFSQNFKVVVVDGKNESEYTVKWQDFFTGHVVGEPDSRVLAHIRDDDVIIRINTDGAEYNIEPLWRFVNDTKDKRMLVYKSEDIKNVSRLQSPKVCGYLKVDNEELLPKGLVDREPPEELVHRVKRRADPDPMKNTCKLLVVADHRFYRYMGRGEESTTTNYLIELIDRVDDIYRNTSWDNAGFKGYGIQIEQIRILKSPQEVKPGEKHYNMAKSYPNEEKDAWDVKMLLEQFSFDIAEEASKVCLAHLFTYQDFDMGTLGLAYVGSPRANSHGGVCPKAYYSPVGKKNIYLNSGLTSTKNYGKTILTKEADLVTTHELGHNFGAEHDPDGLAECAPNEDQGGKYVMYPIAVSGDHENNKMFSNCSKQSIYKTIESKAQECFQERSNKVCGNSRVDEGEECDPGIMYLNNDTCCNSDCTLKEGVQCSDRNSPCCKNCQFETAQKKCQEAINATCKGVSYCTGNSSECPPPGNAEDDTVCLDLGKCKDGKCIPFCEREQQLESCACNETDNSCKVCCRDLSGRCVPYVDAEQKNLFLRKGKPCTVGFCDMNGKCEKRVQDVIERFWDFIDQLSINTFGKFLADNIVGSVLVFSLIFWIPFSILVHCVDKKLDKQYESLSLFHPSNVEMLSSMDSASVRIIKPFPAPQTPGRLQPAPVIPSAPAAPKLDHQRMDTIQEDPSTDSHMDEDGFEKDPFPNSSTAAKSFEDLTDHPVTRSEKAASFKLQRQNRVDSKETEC

[5] = inhibitors of intracellular T. cruzi replication, confirmation, NIH3T3 host cells, beta-gal luminescence (AID 2044); assay type: functional, cell-based;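 further: intracellular parasites grown in NIH/3T3 mouse fibroblasts as host cells; luminescent beta-galactosidase reporter signal from transgenic T. cruzi replicating inside host cells; inhibitors lower the luminescence signal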
[6] = Luminescence-based dose response cell-based high throughput screening assay for cytotoxic compounds using the IEC-6 intestinal epithelial cell line. [Related pubchem assays: 1858 (Summary AID.), 1825 (Counterscreen.), 1907 (Confirmation screen.)]; assay type: functional
[7] = cytotoxicity toward NIH3T3 fibroblasts, dose response, counter-screen, cell-based, ATP luminescence, mouse fibroblasts (AID 2010); assay type: functional;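 further: cells exposed to compound for about 90 hours before reading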
[8] = cytotoxicity in HEK-293T cells, dose response, cytotoxicity control for TCR NF-kB inhibitor project, luminescence, T-cell screen hits (AID 489026); assay type: functional, cell-based;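 further: cells exposed to compound about 14 hours before the viability readout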
cells [9] = assay: cells
cells [10] = assay type: functional, cell-based
[11] = target: T1, Trace amine-associated receptor 1 (Homo sapiens, UniProt Q96RJ0); assay: Fluorescence-based cell-based high throughput dose response assay to identify agonists of the human trace amine associated receptor 1 (TAAR1).; assay type: functional
T1 sequence (Q96RJ0 whole entry): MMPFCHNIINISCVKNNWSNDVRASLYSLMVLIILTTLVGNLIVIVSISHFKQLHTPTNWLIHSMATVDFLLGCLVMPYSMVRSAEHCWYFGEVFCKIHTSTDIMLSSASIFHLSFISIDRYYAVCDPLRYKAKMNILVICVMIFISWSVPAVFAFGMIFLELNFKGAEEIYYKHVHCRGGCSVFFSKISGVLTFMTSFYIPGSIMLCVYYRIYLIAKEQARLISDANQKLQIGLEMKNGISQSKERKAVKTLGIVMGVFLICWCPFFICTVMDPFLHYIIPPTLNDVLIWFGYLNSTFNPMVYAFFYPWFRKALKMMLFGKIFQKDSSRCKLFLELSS

[12] = target: T1, Trace amine-associated receptor 1; assay: Counterscreen for agonists of the human trace amine associated receptor 1 (hTAAR1): Fluorescence-based cell-based high throughput dose response assay to identify hTAAR1 agonist that also desensitize TAAR1 receptor response.; assay type: functional
cells [13] = assay type: functional, cell-based; remark: listed apart in the source
[14] = target: Matrix metalloproteinase-14 (Homo sapiens, UniProt P50281); assay: Dose Response confirmation of uHTS hits for a small molecule inhibitors of MT1-MMP activation in a fluorescence assay set 2.; assay type: functional
[15] = A375 melanoma cell viability loss, dose response, counter-screen for MITF inhibitor project, CellTiter-Glo luminescence, dry powder, set 4 (AID 624364); assay type: functional, cell-based; conditions: A-375;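 further: A375 melanoma cells are MITF independent so this is a counter screen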
[16] = A375 melanoma cell cytotoxicity, dose response, counter-screen for MITF inhibitor project, CellTiter-Glo luminescence, dry powder, set 2 (AID 624489); assay type: functional, cell-based; conditions: A-375;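 further: actives are compounds lowering A375 viability meaning general cytotoxicity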
Transthyretin = Transthyretin (Homo sapiens, UniProt P02766); assay: Luminescence-based cell-based high throughput dose response assay to identify activators of Transthyretin (TTR) transcription.; assay type: functional
Paired box protein Pax-8 = Paired box protein Pax-8 (Homo sapiens, UniProt Q06710); assay: inhibitors of PAX8-driven TPO luciferase reporter, dose response, RMG-I cells, cherry-pick (AID 687027); assay type: functional, cell-based;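 further: luciferase reporter driven by Pax8 target thyroperoxidase promoter measured by SteadyGlo luminescence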
Paired box protein Pax-8, sequence (Q06710 whole entry): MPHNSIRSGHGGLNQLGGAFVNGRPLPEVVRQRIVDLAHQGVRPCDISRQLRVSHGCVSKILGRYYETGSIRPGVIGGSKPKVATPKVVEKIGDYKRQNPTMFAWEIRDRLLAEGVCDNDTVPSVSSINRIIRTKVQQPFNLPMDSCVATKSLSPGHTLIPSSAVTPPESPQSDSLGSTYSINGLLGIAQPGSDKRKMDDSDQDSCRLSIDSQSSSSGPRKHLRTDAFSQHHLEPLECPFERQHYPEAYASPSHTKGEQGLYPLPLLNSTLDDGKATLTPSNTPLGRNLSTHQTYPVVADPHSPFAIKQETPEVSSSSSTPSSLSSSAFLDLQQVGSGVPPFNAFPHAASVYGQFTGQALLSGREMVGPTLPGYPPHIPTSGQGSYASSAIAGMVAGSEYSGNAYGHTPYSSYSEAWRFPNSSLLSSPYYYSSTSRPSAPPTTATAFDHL

[17] = non-specific cell cytotoxicity, dose response, cytotoxicity control for PAX8 inhibitor project, plate reader, dry powder samples (AID 743021); assay type: functional, cell-based
[18] = IGROV1 ovarian cancer cell cytotoxicity, dose response, PAX8 inhibitor project, plate reader, dry powder samples (AID 743043); assay type: functional, cell-based; conditions: IGROV-1
[19] = cytotoxicity in OVCAR8 ovarian cancer cells, dose response, PAX8 project, cell-based, plate reader, dry powder samples (AID 743197); assay type: functional; conditions: OVCAR-8
[20] = NIH:OVCAR-3 ovarian cancer cell cytotoxicity, dose response, PAX8 inhibitor project, plate reader, dry powder samples (AID 743044); assay type: functional, cell-based
[21] = target: T2, Tyrosine-protein phosphatase non-receptor type 7 (Homo sapiens, UniProt P35236); assay: inhibitors of human HePTP phosphatase, […], biochemical, absorbance, leukemia target (AID 521); assay type: functional
T2 sequence (P35236 whole entry): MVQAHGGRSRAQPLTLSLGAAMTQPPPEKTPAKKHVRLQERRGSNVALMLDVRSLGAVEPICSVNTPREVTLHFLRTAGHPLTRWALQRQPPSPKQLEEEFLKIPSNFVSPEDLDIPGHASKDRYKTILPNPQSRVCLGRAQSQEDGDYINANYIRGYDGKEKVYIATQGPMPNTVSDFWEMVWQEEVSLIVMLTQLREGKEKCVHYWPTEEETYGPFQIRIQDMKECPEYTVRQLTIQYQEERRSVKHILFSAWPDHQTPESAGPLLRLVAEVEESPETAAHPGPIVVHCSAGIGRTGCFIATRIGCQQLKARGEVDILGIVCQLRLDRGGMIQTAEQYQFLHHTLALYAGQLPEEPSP

[22] = target: Eukaryotic translation initiation factor 4E (Mus musculus, UniProt P63073); assay: eIF4E–eIF4G protein interaction inhibitors, dose response, biochemical, TR-FRET (AID 855); assay type: functional;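 further: potency for disrupting eIF4E binding to eIF4GI seen as loss of FRET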
Eukaryotic translation initiation factor 4E, sequence (P63073 whole entry): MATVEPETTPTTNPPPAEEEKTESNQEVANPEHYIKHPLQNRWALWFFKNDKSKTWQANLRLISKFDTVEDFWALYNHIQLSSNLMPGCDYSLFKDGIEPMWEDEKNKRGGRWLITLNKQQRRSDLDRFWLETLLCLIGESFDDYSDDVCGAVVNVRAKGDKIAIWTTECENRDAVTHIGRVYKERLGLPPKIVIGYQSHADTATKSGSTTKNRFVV

Kallikrein-7 = Kallikrein-7 (Homo sapiens, UniProt P49862); assay: Fluorescence Intensity-based biochemical primary high throughput dose response assay to identify activators of kallikrein-7 (K7) zymogen.
Kallikrein-7, sequence (P49862 whole entry): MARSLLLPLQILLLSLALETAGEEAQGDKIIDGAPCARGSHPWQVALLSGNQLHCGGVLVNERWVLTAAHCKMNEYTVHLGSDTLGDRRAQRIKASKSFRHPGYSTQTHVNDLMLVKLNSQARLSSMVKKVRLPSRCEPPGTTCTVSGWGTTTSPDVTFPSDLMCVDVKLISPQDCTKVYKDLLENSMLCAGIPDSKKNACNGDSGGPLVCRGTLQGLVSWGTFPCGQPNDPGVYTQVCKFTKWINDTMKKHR

[23] = target: 5-hydroxytryptamine receptor 1A (Homo sapiens, UniProt P08908); assay type: functional
5-hydroxytryptamine receptor 1A, sequence (P08908 whole entry): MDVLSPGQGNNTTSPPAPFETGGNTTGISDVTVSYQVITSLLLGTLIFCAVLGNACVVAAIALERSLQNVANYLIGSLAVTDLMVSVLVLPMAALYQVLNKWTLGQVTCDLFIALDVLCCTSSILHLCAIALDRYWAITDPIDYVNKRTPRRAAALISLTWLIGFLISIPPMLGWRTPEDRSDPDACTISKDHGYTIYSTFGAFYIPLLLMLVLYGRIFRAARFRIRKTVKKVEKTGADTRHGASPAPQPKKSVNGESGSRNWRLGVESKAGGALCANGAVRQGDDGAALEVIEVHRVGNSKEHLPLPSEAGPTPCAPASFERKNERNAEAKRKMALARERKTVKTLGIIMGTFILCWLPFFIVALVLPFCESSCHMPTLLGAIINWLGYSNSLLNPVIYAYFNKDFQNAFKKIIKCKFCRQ

[24] = Luminescence-based cell-based high throughput dose response assay to identify activators of the DAF-12 from the parasite S. stercoralis (ssDAF-12).; assay type: functional
[25] = target: T3, Oxysterols receptor LXR-beta (Homo sapiens, UniProt P55055); assay: LXR agonists, Gal4 luciferase reporter, dose response, counter-screen for ssDAF-12 agonist project, cell-based, luminescence, HEK293, S. stercoralis campaign (AID 720737); assay type: functional; conditions: read-out: IC50 (the source's name)
T3 sequence (P55055 whole entry): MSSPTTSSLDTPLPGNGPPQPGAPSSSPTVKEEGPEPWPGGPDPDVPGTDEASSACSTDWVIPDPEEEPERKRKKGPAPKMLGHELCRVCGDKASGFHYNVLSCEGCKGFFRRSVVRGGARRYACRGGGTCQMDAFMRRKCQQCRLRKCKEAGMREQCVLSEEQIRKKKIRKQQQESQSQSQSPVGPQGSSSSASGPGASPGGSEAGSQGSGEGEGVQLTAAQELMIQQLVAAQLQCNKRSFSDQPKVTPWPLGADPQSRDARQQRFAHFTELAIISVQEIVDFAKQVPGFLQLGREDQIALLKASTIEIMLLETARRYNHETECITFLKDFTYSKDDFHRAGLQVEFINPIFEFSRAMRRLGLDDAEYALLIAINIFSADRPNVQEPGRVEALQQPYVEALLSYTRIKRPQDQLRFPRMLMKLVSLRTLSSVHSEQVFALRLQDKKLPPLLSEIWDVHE

Troponin, cardiac muscle = Troponin, cardiac muscle (Homo sapiens, UniProt P19429+P45379+P63316); assay: Fluorescence-based biochemical high throughput dose response assay for activators of the calcium sensitivity of cardiac Regulated Thin Filaments (RTF). [Related pubchem assays (depositor defined):AID493008, AID493018, AID504382, AID504383]; assay type: protein-complex assay

In the case of `O=[N+]([O-])c1cccnc1N1CCC(c2cc(-c3cccc(C(F)(F)F)c3)[nH]n2)CC1`, the CC50 [1] is reported as 28.7 µM (active), the AC50 [2] is reported as 2.87 µM (active) and the IC50 [3] is reported as 12.7 µM (inactive).
In the case of `CCCCC[C@@H](C)N1C[C@@H](COCc2ccccc2)Oc2cc(N3CC[C@H](O)C3)ccc2S1(=O)=O`, the IC50 [3] is reported as 11.3 µM (inactive) and the IC50 [4] is reported as > 69.5 µM (inactive).
With `CCC(C)C(=O)N[C@@H](c1ccccc1)[C@@H](O)C(=O)O[C@H]1C[C@@]2(O)[C@@H](OC(=O)c3ccccc3)C3[C@](C)(C(=O)[C@H](OC(C)=O)C(=C1C)C2(C)C)[C@@H](O)C[C@H]1OC[C@@]31OC(C)=O` (stereo not given in full) the EC50 [5] was < 0.1 µM (active), the IC50 [6] was 0.244 µM (active) and the EC50 [7] was 6.26 µM (active). For the same compound, the IC50 [8] was > 80 µM (inactive) and the EC50 (cells [9]) was 0.025 µM (active).
For `c1ccc(Cc2cnc(N3CCNCC3)nc2)cc1`, the IC50 (cells [10]) was > 29.9 µM (inactive), the EC50 [11] was 7.24 µM (active) and the IC50 [12] was > 29.9 µM (inactive). The EC50 (cells [13]) was > 29.9 µM (inactive).
With `COc1cc(-c2cc(=O)c3c(O)c(OC)c(OC)cc3o2)cc(OC)c1O` the IC50 [14] was > 80 µM (inactive).
With `CCN(CC)CCCCNC1=C(Nc2ccccc2)C(=O)c2ccccc2C1=O` the AC50 [15] was > 70 µM (inactive) and the AC50 [16] was > 70 µM (inactive).
For `O=[N+]([O-])c1cccnc1N1CCC(c2cc(-c3cccc(C(F)(F)F)c3)n[nH]2)CC1`, the IC50 [4] was > 69.5 µM (inactive).
With `COc1ccc(C(=O)NC2CCCc3c2cnn3-c2cc(F)cc(F)c2)c(OC)c1OC` (stereo not given) the EC50 (Transthyretin) was > 167 µM (inactive).
With `O=C(C[C@@H]1CC[C@H]2[C@@H](COC[C@@H](O)CN2Cc2cccc(F)c2)O1)NCC1CCCCC1` the AC50 (Paired box protein Pax-8) was 34 µM (active) and the AC50 [17] was 61.8 µM (active).
For `Cc1c(C(=O)N2CCc3ccccc32)cnn1C`, the EC50 (Transthyretin) was > 167 µM (inactive).
In the case of `C[C@@H]1CN([C@H](C)CO)C(=O)c2cc(NS(=O)(=O)c3ccc(Cl)cc3)ccc2O[C@@H](C)CCCCO[C@H]1CN(C)S(=O)(=O)c1ccc(F)cc1`, the AC50 (Paired box protein Pax-8) is reported as 2.46 µM (active), the AC50 [18] is reported as 43.9 µM (active) and the AC50 [19] is reported as > 70 µM (inactive).
For `C[C@@H]1CN([C@H](C)CO)C(=O)c2cc(NC(=O)Nc3ccc4c(c3)OCO4)ccc2O[C@@H](C)CCCCO[C@H]1CN(C)Cc1ccc(C(F)(F)F)cc1`, the AC50 (Paired box protein Pax-8) was 8.35 µM (active), the AC50 [20] was 11.6 µM (active) and the AC50 [18] was 12.8 µM (active). For the same compound, the AC50 [19] was > 60 µM (inactive).
In the case of `NC(=O)c1c(NC(=O)CSc2nnc(-c3ccco3)n2-c2ccccc2)sc2c1CCC2`, the IC50 [21] is reported as 10.6 µM (active) and the IC50 [22] is reported as > 64 µM (inactive).
In the case of `COc1ccc(OC)c(/C=C/C(=O)N(C)CC(=O)Nc2ccc(N3CCOCC3)cc2)c1`, the EC50 (Kallikrein-7) is reported as > 69.5 µM (inactive).
With `CSc1nc2ccc(NC(=O)C3CCCO3)cc2s1` (stereo not given) the EC50 [23] was > 50 µM (not active).
For `Cc1ccc(/C=N/Nc2nnc(Cl)c3ccccc23)cc1`, the IC50 [24] was > 67.5 µM (inactive) and the EC50 [25] was > 67.5 µM (inactive).
With `CC1CN(c2nnnn2-c2ccccc2)CC(C)O1` (stereo not given) the EC50 [23] was > 50 µM (not active).
For `CNC(=O)N(O)C1N(C)C(=O)N(CC(=O)OC)C1(C)C` (stereo not given), the IC50 [21] was > 100 µM (not active) and the EC50 (Troponin, cardiac muscle) was > 71.5 µM (inactive).
In the case of `Cc1c(C(=O)O)c(O)cc2c1C(=O)c1c(O)c([C@@H]3O[C@H](CO)[C@@H](O)[C@H](O)[C@H]3O)c(O)c(O)c1C2=O` [CARMINIC ACID], the IC50 [14] is reported as 19.5 µM (active).
In the case of `O=C(NC1=C(N2CCCCC2)C(=O)c2ccccc2C1=O)c1ccc(Br)cc1`, the AC50 [15] is reported as > 70 µM (inactive) and the AC50 [16] is reported as 50.3 µM (active).
For `COc1ccccc1CCNS(=O)(=O)CCNC(=O)c1ccc2c(c1)OCO2`, the IC50 (cells [10]) was > 29.9 µM (inactive), the EC50 [11] was 4.48 µM (active) and the IC50 [12] was 6.62 µM (active). For the same compound, the EC50 (cells [13]) was > 29.9 µM (inactive).
